Legend:
[1] = target: Serine/threonine-protein kinase Sgk2 (Homo sapiens) (UniProt Q9HBY8); assay: Inhibition of human SGK2 at 10 uM after 60 mins by TR-FRET assay; values are per cent of control
[2] = target: Tyrosine-protein kinase Lck (Homo sapiens) (UniProt P06239); assay: Inhibition of human Lck at 10 uM after 60 mins by TR-FRET assay; settings: values are per cent of control
Saccharomyces cerevisiae = assay: Inhibition of yeast CK1 at 10 uM after 60 mins by TR-FRET assay; values are per cent of control
[3] = target: Casein kinase I isoform gamma-3 (Homo sapiens) (UniProt Q9Y6M4); assay: Inhibition of human CK1gamma3 at 10 uM after 60 mins by TR-FRET assay; values are per cent of control
[4] = target: Rho-associated protein kinase 2 (Homo sapiens) (UniProt O75116); assay: Inhibition of human ROCK-2 at 10 uM after 60 mins by TR-FRET assay; values are per cent of control
[5] = target: Angiopoietin-1 receptor (Homo sapiens) (UniProt Q02763); assay: Inhibition of human Tie2 at 10 uM after 60 mins by TR-FRET assay; values are per cent of control
[6] = target: Tyrosine-protein kinase Blk (Mus musculus) (UniProt P16277); assay: Inhibition of mouse Blk at 10 uM after 60 mins by TR-FRET assay; values are per cent of control
[7] = target: Platelet-derived growth factor receptor beta (Homo sapiens) (UniProt P09619); assay: Inhibition of human PDGFRbeta at 10 uM after 60 mins by TR-FRET assay; values are per cent of control
Rattus norvegicus = species: Rattus norvegicus; assay: Inhibition of rat AMPK at 10 uM after 60 mins by TR-FRET assay; values are per cent of control
[8] = target: Proto-oncogene tyrosine-protein kinase Src (Homo sapiens) (UniProt P12931); assay: Inhibition of human Src (1 to 530) at 10 uM after 60 mins by TR-FRET assay; values are per cent of control
[9] = target: Tyrosine-protein kinase SYK (Homo sapiens) (UniProt P43405); assay: Inhibition of human Syk at 10 uM after 60 mins by TR-FRET assay; settings: values are per cent of control
[10] = target: Misshapen-like kinase 1 (Homo sapiens) (UniProt Q8N4C8); assay: Inhibition of human MINK at 10 uM after 60 mins by TR-FRET assay; values are per cent of control
[11] = target: Ribosomal protein S6 kinase alpha-5 (Homo sapiens) (UniProt O75582); assay: Inhibition of human MSK1 at 10 uM after 60 mins by TR-FRET assay; settings: values are per cent of control
[12] = target: Serine/threonine-protein kinase ULK3 (Homo sapiens) (UniProt Q6PHR2); assay: Inhibition of human ULK3 at 10 uM after 60 mins by TR-FRET assay; settings: values are per cent of control
[13] = target: Serine/threonine-protein kinase tousled-like 2 (Homo sapiens) (UniProt Q86UE8); assay: Inhibition of human TLK2 at 10 uM after 60 mins by TR-FRET assay; values are per cent of control
[14] = target: Serine/threonine-protein kinase Nek7 (Homo sapiens) (UniProt Q8TDX7); assay: Inhibition of human NEK7 at 10 uM after 60 mins by TR-FRET assay; values are per cent of control
[15] = target: Ribosomal protein S6 kinase alpha-4 (Homo sapiens) (UniProt O75676); assay: Inhibition of human MSK2 at 10 uM after 60 mins by TR-FRET assay; settings: values are per cent of control
[16] = target: MAP kinase-interacting serine/threonine-protein kinase 2 (Homo sapiens) (UniProt Q9HBH9); assay: Inhibition of human Mnk2 at 10 uM after 60 mins by TR-FRET assay; values are per cent of control
[17] = target: Ribosomal protein S6 kinase alpha-2 (Homo sapiens) (UniProt Q15349); assay: Inhibition of human Rsk3 at 10 uM after 60 mins by TR-FRET assay; settings: values are per cent of control
[18] = target: Protein kinase C beta type (Homo sapiens) (UniProt P05771); assay: Inhibition of human PKCbeta2 at 10 uM after 60 mins by TR-FRET assay; values are per cent of control
[19] = target: Tyrosine-protein kinase Fyn (Homo sapiens) (UniProt P06241); assay: Inhibition of human Fyn at 10 uM after 60 mins by TR-FRET assay; settings: values are per cent of control
[20] = target: Casein kinase I isoform gamma-1 (Homo sapiens) (UniProt Q9HCP0); assay: Inhibition of human CK1gamma1 at 10 uM after 60 mins by TR-FRET assay; values are per cent of control
[21] = target: Casein kinase I isoform delta (Homo sapiens) (UniProt P48730); assay: Inhibition of human CK1d at 10 uM after 60 mins by TR-FRET assay; values are per cent of control
[22] = target: Serine/threonine-protein kinase Nek6 (Homo sapiens) (UniProt Q9HC98); assay: Inhibition of human NEK6 at 10 uM after 60 mins by TR-FRET assay; values are per cent of control
[23] = system: Angiopoietin-1 receptor (Homo sapiens), Q02763 [R849W]; assay: Inhibition of human Tie2 R849W mutant at 10 uM after 60 mins by TR-FRET assay; values are per cent of control
[24] = target: Ephrin type-B receptor 1 (Homo sapiens) (UniProt P54762); assay: Inhibition of human EphB1 at 10 uM after 60 mins by TR-FRET assay; values are per cent of control
[25] = target: Serine/threonine-protein kinase Chk2 (Homo sapiens) (UniProt O96017); assay: Inhibition of human CHK2 at 10 uM after 60 mins by TR-FRET assay; values are per cent of control
[26] = system: Tyrosine-protein kinase ABL1 (Homo sapiens), P00519 [H396P]; assay: Inhibition of human Abl H396P mutant at 10 uM after 60 mins by TR-FRET assay; values are per cent of control
[27] = target: SRSF protein kinase 1 (Homo sapiens) (UniProt Q96SB4); assay: Inhibition of human SRPK1 at 10 uM after 60 mins by TR-FRET assay; values are per cent of control

Misshapen-like kinase 1 (Homo sapiens), sequence (Q8N4C8 whole entry, looked up): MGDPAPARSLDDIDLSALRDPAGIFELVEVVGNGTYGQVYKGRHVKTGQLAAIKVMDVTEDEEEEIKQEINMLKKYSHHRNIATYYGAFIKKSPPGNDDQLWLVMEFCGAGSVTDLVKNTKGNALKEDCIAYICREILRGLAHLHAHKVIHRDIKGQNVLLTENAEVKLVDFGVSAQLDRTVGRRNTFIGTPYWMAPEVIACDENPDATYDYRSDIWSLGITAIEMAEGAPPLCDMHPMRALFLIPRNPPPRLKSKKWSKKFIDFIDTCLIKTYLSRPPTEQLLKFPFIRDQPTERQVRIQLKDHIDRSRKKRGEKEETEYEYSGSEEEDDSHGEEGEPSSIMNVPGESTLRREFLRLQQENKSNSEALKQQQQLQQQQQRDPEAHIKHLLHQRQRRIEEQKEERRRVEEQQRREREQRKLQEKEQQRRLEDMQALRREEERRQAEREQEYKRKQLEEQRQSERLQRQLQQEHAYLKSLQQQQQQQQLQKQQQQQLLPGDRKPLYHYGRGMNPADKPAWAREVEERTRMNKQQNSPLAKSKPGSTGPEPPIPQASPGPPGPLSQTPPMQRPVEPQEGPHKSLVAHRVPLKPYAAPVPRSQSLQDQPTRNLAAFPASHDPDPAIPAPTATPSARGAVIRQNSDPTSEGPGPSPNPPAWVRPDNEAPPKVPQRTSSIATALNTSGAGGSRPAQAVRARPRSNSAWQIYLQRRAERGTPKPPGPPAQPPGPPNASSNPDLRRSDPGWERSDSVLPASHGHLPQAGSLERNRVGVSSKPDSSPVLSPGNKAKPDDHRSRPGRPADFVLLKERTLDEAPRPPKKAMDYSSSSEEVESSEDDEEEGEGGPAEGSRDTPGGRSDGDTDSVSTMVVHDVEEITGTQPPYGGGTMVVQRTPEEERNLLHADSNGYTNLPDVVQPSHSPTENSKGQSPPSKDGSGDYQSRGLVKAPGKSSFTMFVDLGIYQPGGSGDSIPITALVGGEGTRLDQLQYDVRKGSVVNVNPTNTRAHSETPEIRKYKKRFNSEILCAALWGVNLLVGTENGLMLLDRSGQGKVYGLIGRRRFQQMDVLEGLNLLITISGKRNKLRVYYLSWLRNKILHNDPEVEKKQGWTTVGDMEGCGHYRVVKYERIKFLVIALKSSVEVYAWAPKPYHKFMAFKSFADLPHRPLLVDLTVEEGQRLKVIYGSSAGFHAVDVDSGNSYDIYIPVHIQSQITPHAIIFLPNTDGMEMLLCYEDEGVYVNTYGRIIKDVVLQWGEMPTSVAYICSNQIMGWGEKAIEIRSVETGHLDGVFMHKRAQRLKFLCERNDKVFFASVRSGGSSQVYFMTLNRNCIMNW
Platelet-derived growth factor receptor beta (Homo sapiens), sequence (P09619 whole entry): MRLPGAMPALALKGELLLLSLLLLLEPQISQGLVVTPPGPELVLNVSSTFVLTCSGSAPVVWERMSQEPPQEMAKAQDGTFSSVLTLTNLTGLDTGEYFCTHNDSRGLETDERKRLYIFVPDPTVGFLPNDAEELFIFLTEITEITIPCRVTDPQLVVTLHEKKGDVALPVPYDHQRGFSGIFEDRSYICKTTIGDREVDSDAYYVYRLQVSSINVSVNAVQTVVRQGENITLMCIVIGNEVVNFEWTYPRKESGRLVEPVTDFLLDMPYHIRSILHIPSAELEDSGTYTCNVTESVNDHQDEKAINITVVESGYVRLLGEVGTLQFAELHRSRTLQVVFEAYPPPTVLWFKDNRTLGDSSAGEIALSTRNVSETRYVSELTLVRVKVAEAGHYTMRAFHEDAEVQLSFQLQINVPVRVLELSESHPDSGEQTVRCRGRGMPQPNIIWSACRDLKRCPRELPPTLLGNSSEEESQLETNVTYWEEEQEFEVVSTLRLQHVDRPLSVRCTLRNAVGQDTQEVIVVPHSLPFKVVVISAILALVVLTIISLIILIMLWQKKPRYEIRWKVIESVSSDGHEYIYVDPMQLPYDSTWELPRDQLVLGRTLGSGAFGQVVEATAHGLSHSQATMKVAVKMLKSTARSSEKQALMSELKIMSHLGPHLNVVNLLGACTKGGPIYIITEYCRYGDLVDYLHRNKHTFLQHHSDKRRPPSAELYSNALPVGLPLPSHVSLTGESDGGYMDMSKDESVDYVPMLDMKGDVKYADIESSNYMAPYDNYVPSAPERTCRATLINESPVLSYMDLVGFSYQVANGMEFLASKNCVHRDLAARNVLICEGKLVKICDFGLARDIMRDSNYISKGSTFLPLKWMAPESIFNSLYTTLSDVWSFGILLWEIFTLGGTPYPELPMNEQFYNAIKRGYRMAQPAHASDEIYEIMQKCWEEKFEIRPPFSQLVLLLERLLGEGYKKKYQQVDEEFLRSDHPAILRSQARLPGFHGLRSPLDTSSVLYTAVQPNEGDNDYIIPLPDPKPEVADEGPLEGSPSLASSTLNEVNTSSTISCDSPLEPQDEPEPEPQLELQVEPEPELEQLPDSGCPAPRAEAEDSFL
Serine/threonine-protein kinase Chk2 (Homo sapiens), sequence (O96017 whole entry): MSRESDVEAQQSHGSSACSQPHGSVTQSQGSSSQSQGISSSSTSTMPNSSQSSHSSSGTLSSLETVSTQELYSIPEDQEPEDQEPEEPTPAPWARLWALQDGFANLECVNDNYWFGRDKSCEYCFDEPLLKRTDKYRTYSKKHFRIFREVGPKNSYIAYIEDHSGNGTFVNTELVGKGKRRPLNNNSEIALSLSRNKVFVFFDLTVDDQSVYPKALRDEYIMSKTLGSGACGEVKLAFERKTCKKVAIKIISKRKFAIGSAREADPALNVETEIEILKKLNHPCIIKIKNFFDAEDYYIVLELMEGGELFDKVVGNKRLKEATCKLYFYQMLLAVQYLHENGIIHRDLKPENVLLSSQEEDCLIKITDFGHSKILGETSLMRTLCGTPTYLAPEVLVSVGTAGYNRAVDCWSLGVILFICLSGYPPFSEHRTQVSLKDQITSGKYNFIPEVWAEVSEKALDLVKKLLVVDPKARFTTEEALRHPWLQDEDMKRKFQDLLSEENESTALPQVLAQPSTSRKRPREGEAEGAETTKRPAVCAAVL
Serine/threonine-protein kinase Sgk2 (Homo sapiens), sequence (Q9HBY8 whole entry): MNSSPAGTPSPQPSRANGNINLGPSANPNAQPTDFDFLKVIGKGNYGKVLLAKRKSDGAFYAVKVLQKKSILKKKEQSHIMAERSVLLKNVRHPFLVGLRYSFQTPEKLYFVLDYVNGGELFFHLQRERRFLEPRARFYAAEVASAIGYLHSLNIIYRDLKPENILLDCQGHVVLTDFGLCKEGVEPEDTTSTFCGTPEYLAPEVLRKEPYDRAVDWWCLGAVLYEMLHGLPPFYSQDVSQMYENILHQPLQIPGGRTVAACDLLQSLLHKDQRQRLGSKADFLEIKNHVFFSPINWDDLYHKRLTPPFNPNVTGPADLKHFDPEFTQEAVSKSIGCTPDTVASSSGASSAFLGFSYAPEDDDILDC
Ephrin type-B receptor 1 (Homo sapiens), sequence (P54762 whole entry): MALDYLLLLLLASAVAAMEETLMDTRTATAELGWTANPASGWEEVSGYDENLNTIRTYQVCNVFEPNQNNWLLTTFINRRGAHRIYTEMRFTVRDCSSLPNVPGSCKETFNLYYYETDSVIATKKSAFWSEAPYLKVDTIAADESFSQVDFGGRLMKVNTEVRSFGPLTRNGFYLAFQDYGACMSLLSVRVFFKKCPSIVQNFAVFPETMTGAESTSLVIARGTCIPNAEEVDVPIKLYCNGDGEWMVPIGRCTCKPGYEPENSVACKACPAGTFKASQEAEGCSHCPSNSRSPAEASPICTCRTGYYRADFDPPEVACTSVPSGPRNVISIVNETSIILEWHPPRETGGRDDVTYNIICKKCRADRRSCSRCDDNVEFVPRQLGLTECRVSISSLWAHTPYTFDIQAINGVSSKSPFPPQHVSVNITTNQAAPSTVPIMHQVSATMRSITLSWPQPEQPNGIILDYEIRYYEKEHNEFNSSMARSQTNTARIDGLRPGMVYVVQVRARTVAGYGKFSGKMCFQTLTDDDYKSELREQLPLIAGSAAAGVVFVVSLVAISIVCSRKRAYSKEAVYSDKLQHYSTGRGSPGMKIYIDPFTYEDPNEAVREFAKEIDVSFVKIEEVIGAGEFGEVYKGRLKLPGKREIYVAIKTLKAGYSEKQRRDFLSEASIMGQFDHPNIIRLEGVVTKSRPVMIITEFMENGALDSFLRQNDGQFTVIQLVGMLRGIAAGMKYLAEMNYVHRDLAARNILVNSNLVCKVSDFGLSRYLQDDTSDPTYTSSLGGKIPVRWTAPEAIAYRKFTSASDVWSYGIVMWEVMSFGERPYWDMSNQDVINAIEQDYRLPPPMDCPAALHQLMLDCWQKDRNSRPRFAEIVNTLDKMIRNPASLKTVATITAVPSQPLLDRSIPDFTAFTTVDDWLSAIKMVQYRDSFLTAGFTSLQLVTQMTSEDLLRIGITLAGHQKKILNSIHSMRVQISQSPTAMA
Tyrosine-protein kinase Blk (Mus musculus), sequence (P16277 whole entry): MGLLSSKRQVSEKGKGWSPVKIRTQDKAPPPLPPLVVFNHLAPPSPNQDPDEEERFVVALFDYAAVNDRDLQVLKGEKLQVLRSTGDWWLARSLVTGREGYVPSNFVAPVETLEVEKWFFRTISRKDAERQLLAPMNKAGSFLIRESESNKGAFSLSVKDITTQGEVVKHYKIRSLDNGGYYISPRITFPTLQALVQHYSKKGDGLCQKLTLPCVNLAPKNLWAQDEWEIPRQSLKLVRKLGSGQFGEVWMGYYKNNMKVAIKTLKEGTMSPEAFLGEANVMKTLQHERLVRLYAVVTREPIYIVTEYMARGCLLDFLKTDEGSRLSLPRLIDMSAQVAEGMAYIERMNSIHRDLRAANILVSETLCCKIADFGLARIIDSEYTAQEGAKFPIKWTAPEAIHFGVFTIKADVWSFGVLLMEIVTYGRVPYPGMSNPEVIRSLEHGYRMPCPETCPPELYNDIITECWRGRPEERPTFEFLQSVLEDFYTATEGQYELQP

S=c1[nH]nc(-c2ccncc2)n1-c1ccc2ccccc2c1
residual activity [1]: 119%
residual activity [2]: 76%
residual activity (Saccharomyces cerevisiae): 90%
residual activity [3]: 108%
residual activity [4]: 101%
residual activity [5]: 103%
residual activity [6]: 107%
residual activity [7]: 99%
residual activity (Rattus norvegicus): 108%
residual activity [8]: 106%
residual activity [9]: 116%
residual activity [10]: 80%
residual activity [11]: 114%
residual activity [12]: 107%
residual activity [13]: 110%
residual activity [14]: 112%
residual activity [15]: 109%
residual activity [16]: 112%
residual activity [17]: 90%
residual activity [18]: 105%
residual activity [19]: 116%
residual activity [20]: 105%
residual activity [21]: 96%
residual activity [22]: 116%
residual activity [23]: 94%
residual activity [24]: 79%
residual activity [25]: 116%
residual activity [26]: 107%
residual activity [27]: 93%
